Measurements taken from patent publication US5530126A, “Process for the preparation of substituted 6-(pyrazol-3yl)-1,4-benzoxazin-3-ones” (Monsanto Company, priority 1994, dated 1996).

Legend:
Type in all cases: in vivo
Indian Mustard [1] = test: Pre-emergence herbicide test; conditions: Brassica juncea, read-out: % plant inhibition (Inmu); for inhibition at 1120 g/ha: 1.12 kg/ha
Summary of the method: (§1)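 In this greenhouse test, seeds on compacted topsoil receive the active ingredient in an organic solvent or aqueous carrier, are covered with untreated soil and watered from below; percent inhibition is scored approximately 11 days later.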

Barnyardgrass [2] = test: Pre-emergence herbicide test; conditions: Echinochloa crus-galli, read-out: % plant inhibition (Bygr); for inhibition at 1120 g/ha: 1.12 kg/ha
Summary of the method: as §1

Velvetleaf [3] = test: Pre-emergence herbicide test; conditions: Abutilon theophrasti, read-out: % plant inhibition (Vele); for inhibition at 1120 g/ha: 1.12 kg/ha
Summary of the method: as §1

Seedling johnsongrass [4] = test: Pre-emergence herbicide test; conditions: Sorghum halepense, read-out: % plant inhibition (Sejg); for inhibition at 1120 g/ha: 1.12 kg/ha
Summary of the method: as §1

Annual bluegrass [5] = test: Pre-emergence herbicide test; conditions: read-out: % plant inhibition (Anbg); for inhibition at 1120 g/ha: 1.12 kg/ha
Summary of the method: as §1

Yellow nutsedge [6] = test: Pre-emergence herbicide test; conditions: Cyperus, read-out: % plant inhibition (Yens); for inhibition at 1120 g/ha: 1.12 kg/ha
Summary of the method: as §1

Wild buckwheat [7] = test: Pre-emergence herbicide test; conditions: Fallopia convolvulus, read-out: % plant inhibition (Wibw); for inhibition at 1120 g/ha: 1.12 kg/ha
Summary of the method: as §1

Downy Brome [8] = test: Pre-emergence herbicide test; conditions: Bromus tectorum, read-out: % plant inhibition (Dobr); for inhibition at 1120 g/ha: 1.12 kg/ha
Summary of the method: as §1

Morningglory [9] = test: Pre-emergence herbicide test; conditions: Ipomoea, read-out: % plant inhibition (Mogl); for inhibition at 1120 g/ha: 1.12 kg/ha
Summary of the method: as §1

Cocklebur [10] = test: Pre-emergence herbicide test; conditions: Xanthium strumarium, read-out: % plant inhibition (Cobu); for inhibition at 1120 g/ha: 1.12 kg/ha
Summary of the method: as §1

Indian Mustard [11] = test: Post-emergence herbicide test; conditions: Brassica juncea, read-out: % plant inhibition (Inmu); for inhibition at 1120 g/ha: 1.12 kg/ha
Summary of the method: (§2)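 Emerged annual and perennial plants (2–3 weeks) are sprayed with test compound in a carrier with ~0.4% emulsifier, 1870 L/Ha total volume, atomizer pressure 10 psig. Effects are expressed as % inhibition versus control at approximately 10–14 days and occasionally 24–28 days.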

Barnyardgrass [12] = test: Post-emergence herbicide test; conditions: Echinochloa crus-galli, read-out: % plant inhibition (Bygr); for inhibition at 1120 g/ha: 1.12 kg/ha
Summary of the method: as §2

Velvetleaf [13] = test: Post-emergence herbicide test; conditions: Abutilon theophrasti, read-out: % plant inhibition (Vele); for inhibition at 1120 g/ha: 1.12 kg/ha
Summary of the method: as §2

Seedling johnsongrass [14] = test: Post-emergence herbicide test; conditions: Sorghum halepense, read-out: % plant inhibition (Sejg); for inhibition at 1120 g/ha: 1.12 kg/ha
Summary of the method: as §2

Annual bluegrass [15] = test: Post-emergence herbicide test; conditions: read-out: % plant inhibition (Anbg); for inhibition at 1120 g/ha: 1.12 kg/ha
Summary of the method: as §2

Yellow nutsedge [16] = test: Post-emergence herbicide test; conditions: Cyperus, read-out: % plant inhibition (Yens); for inhibition at 1120 g/ha: 1.12 kg/ha
Summary of the method: as §2

Wild buckwheat [17] = test: Post-emergence herbicide test; conditions: Fallopia convolvulus, read-out: % plant inhibition (Wibw); for inhibition at 1120 g/ha: 1.12 kg/ha
Summary of the method: as §2

Downy Brome [18] = test: Post-emergence herbicide test; conditions: Bromus tectorum, read-out: % plant inhibition (Dobr); for inhibition at 1120 g/ha: 1.12 kg/ha
Summary of the method: as §2

Morningglory [19] = test: Post-emergence herbicide test; conditions: Ipomoea, read-out: % plant inhibition (Mogl); for inhibition at 1120 g/ha: 1.12 kg/ha
Summary of the method: as §2

Cocklebur [20] = test: Post-emergence herbicide test; conditions: Xanthium strumarium, read-out: % plant inhibition (Cobu); for inhibition at 1120 g/ha: 1.12 kg/ha
Summary of the method: as §2

Compound | inhibition at 1120 g/ha (Indian Mustard [1]) [%] | inhibition at 1120 g/ha (Barnyardgrass [2]) [%] | inhibition at 1120 g/ha (Velvetleaf [3]) [%] | inhibition at 1120 g/ha (Seedling johnsongrass [4]) [%] | inhibition at 1120 g/ha (Annual bluegrass [5]) [%] | inhibition at 1120 g/ha (Yellow nutsedge [6]) [%] | inhibition at 1120 g/ha (Wild buckwheat [7]) [%] | inhibition at 1120 g/ha (Downy Brome [8]) [%] | inhibition at 1120 g/ha (Morningglory [9]) [%] | inhibition at 1120 g/ha (Cocklebur [10]) [%] | inhibition at 1120 g/ha (Indian Mustard [11]) [%] | inhibition at 1120 g/ha (Barnyardgrass [12]) [%] | inhibition at 1120 g/ha (Velvetleaf [13]) [%] | inhibition at 1120 g/ha (Seedling johnsongrass [14]) [%] | inhibition at 1120 g/ha (Annual bluegrass [15]) [%] | inhibition at 1120 g/ha (Yellow nutsedge [16]) [%] | inhibition at 1120 g/ha (Wild buckwheat [17]) [%] | inhibition at 1120 g/ha (Downy Brome [18]) [%] | inhibition at 1120 g/ha (Morningglory [19]) [%] | inhibition at 1120 g/ha (Cocklebur [20]) [%] | also measured
Cn1nc(-c2cc(CC#N)c(Cl)cc2F)c(Cl)c1C(F)(F)F [Compound 115] | 100 | 80 | 100 | 70 | 40 | 0 | 90 | 70 | 80 | 20 | 60 | 80 | 100 | 40 | 40 | 20 | 100 | 20 | 60 | 60 | –
Cn1nc(-c2cc(COCCF)c(Cl)cc2F)c(Cl)c1C(F)(F)F [Compound 116] | 90 | 90 | 100 | 90 | 90 | 0 | 100 | 80 | 90 | 50 | 80 | 80 | 100 | 70 | 80 | 20 | 80 | 70 | 100 | 100 | –
COCCOCc1cc(-c2nn(C)c(C(F)(F)F)c2Cl)c(F)cc1Cl [Compound 117] | 100 | 100 | 100 | 70 | 100 | 0 | 100 | 90 | 90 | 70 | 90 | 100 | 100 | 100 | 90 | 20 | 100 | 100 | 100 | 90 | –
CCOCc1cc(-c2nn(C)c(C(F)(F)F)c2Cl)c(F)cc1Cl [Compound 118] | 100 | 90 | 90 | 90 | 100 | 0 | 100 | 100 | 100 | 80 | 30 | 30 | 90 | 30 | 30 | 30 | 100 | 20 | 60 | 80 | –
CC(C)OC(=O)COCc1cc(-c2nn(C)c(C(F)(F)F)c2Cl)c(F)cc1Cl [Compound 119] | – | – | – | – | – | – | – | – | – | – | – | – | – | – | – | – | – | – | – | – | inhibition at 11210 g/ha (Indian Mustard [1]; 11.21 kg/ha): 100%; inhibition at 11210 g/ha (Barnyardgrass [2]; 11.21 kg/ha): 100%; inhibition at 11210 g/ha (Velvetleaf [3]; 11.21 kg/ha): 100%; inhibition at 11210 g/ha (Seedling johnsongrass [4]; 11.21 kg/ha): 80%; inhibition at 11210 g/ha (Annual bluegrass [5]; 11.21 kg/ha): 10%; inhibition at 11210 g/ha (Yellow nutsedge [6]; 11.21 kg/ha): 70%; inhibition at 11210 g/ha (Wild buckwheat [7]; 11.21 kg/ha): 100%; inhibition at 11210 g/ha (Downy Brome [8]; 11.21 kg/ha): 80%; inhibition at 11210 g/ha (Morningglory [9]; 11.21 kg/ha): 100%; inhibition at 11210 g/ha (Cocklebur [10]; 11.21 kg/ha): 100%; inhibition at 11210 g/ha (Indian Mustard [11]; 11.21 kg/ha): 100%; inhibition at 11210 g/ha (Barnyardgrass [12]; 11.21 kg/ha): 100%; inhibition at 11210 g/ha (Velvetleaf [13]; 11.21 kg/ha): 100%; inhibition at 11210 g/ha (Seedling johnsongrass [14]; 11.21 kg/ha): 100%; inhibition at 11210 g/ha (Annual bluegrass [15]; 11.21 kg/ha): 100%; inhibition at 11210 g/ha (Yellow nutsedge [16]; 11.21 kg/ha): 20%; inhibition at 11210 g/ha (Wild buckwheat [17]; 11.21 kg/ha): 100%; inhibition at 11210 g/ha (Downy Brome [18]; 11.21 kg/ha): 100%; inhibition at 11210 g/ha (Morningglory [19]; 11.21 kg/ha): 100%; inhibition at 11210 g/ha (Cocklebur [20]; 11.21 kg/ha): 100%
